Assay results taken from patent US20060257436A1, “Skin preparation composition for external use” (Shiseido Company, Ltd., priority 2003, published 2006).
Converted amounts (≈) assume the structure as drawn. Where two headings read alike, the source gives them in different places.

What was measured:
[1] = test system: Staphylococcus aureus (ATCC6538); assay: Minimum inhibiting concentration (MIC), agar plate method; format: cell-based
Method: (§1) Using the agar plate method, for bacteria, the following various bacteria were inoculated in SCD agar media (made by Eiken) containing 3-hexine-2,5-diol in different concentrations and cultured at 30° C. for 24 hours. […] Further, for fungi, the following various bacteria were inoculated in a potato dextrose agar media containing 3-hexine-2,5-diol in different concentrations and cultured at 25° C. for 48 hours. […] The same was conducted for methyl paraoxybenzoate methyl. The results of the judgment are shown in Table 1 based on the following evaluation criteria:
as §1, with “III-1” for “1”
as §1, with “media containing the test compound, in different” for “media containing 3-hexine-2,5-diol in different”, “in Table VII-1 based on” for “in Table 1 based on”, “evaluation criteria: […]” for “evaluation criteria:”

[2] = test system: Candida albicans (ATCC10231); assay: as above; format: cell-based
Method: as §1
as §1, with “III-1” for “1”
as §1, with “media containing the test compound, in different” for “media containing 3-hexine-2,5-diol in different”, “in Table VII-1 based on” for “in Table 1 based on”, “evaluation criteria: […]” for “evaluation criteria:”

[3] = test system: Pseudomonas aeuginosa (ATCC15442); assay: as above; format: cell-based
Method: as §1
as §1, with “III-1” for “1”
as §1, with “media containing the test compound, in different” for “media containing 3-hexine-2,5-diol in different”, “in Table VII-1 based on” for “in Table 1 based on”, “evaluation criteria: […]” for “evaluation criteria:”

[4] = test system: Escherichia coli (ATCC8739); assay: as above; format: cell-based
Method: as §1
as §1, with “III-1” for “1”
as §1, with “media containing the test compound, in different” for “media containing 3-hexine-2,5-diol in different”, “in Table VII-1 based on” for “in Table 1 based on”, “evaluation criteria: […]” for “evaluation criteria:”

[5] = test system: Aspergillus niger (ATCC16404); assay: as above; format: cell-based
Method: as §1
as §1, with “III-1” for “1”
as §1, with “media containing the test compound, in different” for “media containing 3-hexine-2,5-diol in different”, “in Table VII-1 based on” for “in Table 1 based on”, “evaluation criteria: […]” for “evaluation criteria:”

[6] = in vivo
Method: (§2) The 3-hexine-2,5-diol of the present invention was tested for safety.
(§3) The glycerol derivatives of the present invention i.e., 3-phenoxy-1,2-propane diol and 3-benzyloxy-1,2-propane diol, were tested for safety.
(§4) The 2,2-dimethyl-1-phenyl-1,3-propanediol of the present invention was tested for safety.

[7] = in vivo; remark: listed apart in the source
Method: as §2, §3, §4

[8] = in vivo; remark: listed apart in the source
Method: as §2, §3, §4

[9] = Skin sensitization test; conditions: in vivo
Method: as §2, §3, §4

[10] = Primary skin irritation test; conditions: in vivo
Method: as §2, §3, §4

[11] = Continuous skin irritation test; conditions: in vivo
Method: as §2, §3, §4

[12] = Genetic toxicity test
Method: as §2, §3, §4

[13] = Staphylococcus aureus (ATCC6538), read-out: Antimicrobial effect (minimum inhibiting concentration rank)
[14] = Candida albicans (ATCC10231), read-out: Antimicrobial effect (minimum inhibiting concentration rank)
[15] = Pseudomonas aeuginosa (ATCC15442), read-out: Antimicrobial effect (minimum inhibiting concentration rank)
[16] = Escherichia coli (ATCC8739), read-out: Antimicrobial effect (minimum inhibiting concentration rank)
[17] = Aspergillus niger (ATCC16404), read-out: Antimicrobial effect (minimum inhibiting concentration rank)
[18] = Table I-1, SCD agar media, 30° C., 24 hours
[19] = Table I-1, potato dextrose agar media, 25° C., 48 hours
[20] = Table III-1, SCD agar media, 30° C., 24 hours
[21] = Table III-1, potato dextrose agar media, 25° C., 48 hours

CC(C)(CO)C(O)c1ccccc1 (stereo not drawn)
MIC [1, 13]: < 1000 µg/mL | MIC [2, 14]: < 1000 µg/mL | MIC [3, 15]: < 1000 µg/mL | MIC [4, 16]: < 1000 µg/mL | MIC [5, 17]: < 1000 µg/mL | skin irritability (continuous skin irritation test) [6]: extremely weak | toxicity (single administration toxicity test) (single administration): extremely weak | skin irritability (primary skin irritation test) [7]: extremely weak | skin sensitization test result [8]: negative

OCC(O)COCc1ccccc1 (stereo not drawn) [3-Benzyloxy-1,2-propane diol, 3-benzyloxy-1,2-propanediol]
MIC ([1]; Staphylococcus aureus, ATCC6538, Table III-1, SCD agar media, 30° C., 24 hours, read-out: Antimicrobial effect: minimum inhibiting concentration (MIC)): < 1000 µg/mL | MIC ([2]; Candida albicans, ATCC10231, Table III-1, potato dextrose agar media, 25° C., 48 hours, read-out: Antimicrobial effect: minimum inhibiting concentration (MIC)): < 1000 µg/mL | MIC ([3]; Pseudomonas, ATCC15442, Table III-1, SCD agar media, 30° C., 24 hours, read-out: Antimicrobial effect: minimum inhibiting concentration (MIC)): < 1000 µg/mL | MIC ([4]; Escherichia coli, ATCC8739, Table III-1, SCD agar media, 30° C., 24 hours, read-out: Antimicrobial effect: minimum inhibiting concentration (MIC)): < 1000 µg/mL | MIC ([5]; Aspergillus niger, ATCC16404, Table III-1, potato dextrose agar media, 25° C., 48 hours, read-out: Antimicrobial effect: minimum inhibiting concentration (MIC)): < 1000 µg/mL | skin irritability (continuous skin irritation test) [6]: extremely weak | toxicity (single administration toxicity test) (single administration): extremely weak | skin irritability (primary skin irritation test) [7]: extremely weak | skin sensitization test result [8]: negative

OCC(O)COc1ccccc1 (stereo not drawn) [3-Phenoxy-1,2-propane diol, 3-phenoxy-1,2-propanediol]
MIC ([1]; Staphylococcus aureus, ATCC6538, 24 h, read-out: Antimicrobial effect: minimum inhibiting concentration (MIC)): < 1000 µg/mL | MIC ([2]; Candida albicans, ATCC10231, 48 h, read-out: Antimicrobial effect: minimum inhibiting concentration (MIC)): < 1000 µg/mL | MIC ([3]; Pseudomonas, ATCC15442, 24 h, read-out: Antimicrobial effect: minimum inhibiting concentration (MIC)): < 1000 µg/mL | MIC ([4]; Escherichia coli, ATCC8739, 24 h, read-out: Antimicrobial effect: minimum inhibiting concentration (MIC)): < 1000 µg/mL | MIC ([5]; Aspergillus niger, ATCC16404, 48 h, read-out: Antimicrobial effect: minimum inhibiting concentration (MIC)): < 1000 µg/mL | skin irritability (continuous skin irritation test) [6]: extremely weak | toxicity (single administration toxicity test) (in vivo): extremely weak | skin irritability (primary skin irritation test) [7]: extremely weak | skin sensitization test result [8]: negative

CC(O)C#CC(C)O (stereo not drawn) [3-hexine-2,5-diol]
Antimicrobial effect: minimum inhibiting concentration (MIC) [1, 18]: A (Minimum inhibiting concentration of less than 1000 ppm) | Antimicrobial effect: minimum inhibiting concentration (MIC) [2, 19]: A (Minimum inhibiting concentration of less than 1000 ppm) | Antimicrobial effect: minimum inhibiting concentration (MIC) [3, 18]: A (Minimum inhibiting concentration of less than 1000 ppm) | Antimicrobial effect: minimum inhibiting concentration (MIC) [4, 18]: A (Minimum inhibiting concentration of less than 1000 ppm) | Antimicrobial effect: minimum inhibiting concentration (MIC) [5, 19]: A (Minimum inhibiting concentration of less than 1000 ppm) | skin sensitization test result [9]: negative | skin irritability (primary skin irritation test) [10]: extremely weak | toxicity (single administration toxicity test) (single administration): extremely weak | skin irritability (continuous skin irritation test) [11]: extremely weak | genetic toxicity test result [12]: negative

COC(=O)c1ccc(O)cc1 [Methyl paraoxybenzoate, reference compound]
MIC ([1]; Staphylococcus aureus (ATCC6538), read-out: Antimicrobial effect (minimum inhibiting concentration class)): 1000 to 5000 µg/mL (≈ 6.57 to 32.9 mM) | MIC [1, 13]: 1000 to 5000 µg/mL (≈ 6.57 to 32.9 mM) | MIC ([1]; Staphylococcus aureus, ATCC6538, Table I-1, SCD agar media, 30° C., 24 hours, read-out: Antimicrobial effect: minimum inhibiting concentration (MIC)): 1000 to 5000 µg/mL (≈ 6.57 to 32.9 mM) | Antimicrobial effect: minimum inhibiting concentration (MIC) [1, 20]: B (Minimum inhibiting concentration of 1000 ppm to less than 5000 ppm) | MIC ([2]; Candida albicans (ATCC10231), read-out: Antimicrobial effect (minimum inhibiting concentration class)): 1000 to 5000 µg/mL (≈ 6.57 to 32.9 mM) | MIC [2, 14]: 1000 to 5000 µg/mL (≈ 6.57 to 32.9 mM) | MIC ([2]; Candida albicans, ATCC10231, Table I-1, potato dextrose agar media, 25° C., 48 hours, read-out: Antimicrobial effect: minimum inhibiting concentration (MIC)): 1000 to 5000 µg/mL (≈ 6.57 to 32.9 mM) | Antimicrobial effect: minimum inhibiting concentration (MIC) [2, 21]: B (Minimum inhibiting concentration of 1000 ppm to less than 5000 ppm) | MIC ([3]; Pseudomonas aeuginosa (ATCC15442), read-out: Antimicrobial effect (minimum inhibiting concentration class)): 5000 to 10000 µg/mL (≈ 32.9 to 65.7 mM) | MIC [3, 15]: 5000 to 10000 µg/mL (≈ 32.9 to 65.7 mM) | MIC ([3]; Pseudomonas, ATCC15442, Table I-1, SCD agar media, 30° C., 24 hours, read-out: Antimicrobial effect: minimum inhibiting concentration (MIC)): 5000 to 10000 µg/mL (≈ 32.9 to 65.7 mM) | Antimicrobial effect: minimum inhibiting concentration (MIC) [3, 20]: C (Minimum inhibiting concentration of 5000 ppm to less than 10000 ppm) | MIC ([4]; Escherichia coli (ATCC8739), read-out: Antimicrobial effect (minimum inhibiting concentration class)): 1000 to 5000 µg/mL (≈ 6.57 to 32.9 mM) | MIC [4, 16]: 1000 to 5000 µg/mL (≈ 6.57 to 32.9 mM) | MIC ([4]; Escherichia coli, ATCC8739, Table I-1, SCD agar media, 30° C., 24 hours, read-out: Antimicrobial effect: minimum inhibiting concentration (MIC)): 1000 to 5000 µg/mL (≈ 6.57 to 32.9 mM) | Antimicrobial effect: minimum inhibiting concentration (MIC) [4, 20]: B (Minimum inhibiting concentration of 1000 ppm to less than 5000 ppm) | MIC ([5]; Aspergillus niger (ATCC16404), read-out: Antimicrobial effect (minimum inhibiting concentration class)): 1000 to 5000 µg/mL (≈ 6.57 to 32.9 mM) | MIC [5, 17]: 1000 to 5000 µg/mL (≈ 6.57 to 32.9 mM) | MIC ([5]; Aspergillus niger, ATCC16404, Table I-1, potato dextrose agar media, 25° C., 48 hours, read-out: Antimicrobial effect: minimum inhibiting concentration (MIC)): 1000 to 5000 µg/mL (≈ 6.57 to 32.9 mM) | Antimicrobial effect: minimum inhibiting concentration (MIC) [5, 21]: B (Minimum inhibiting concentration of 1000 ppm to less than 5000 ppm)
